Columns and labels:
[1] = system: delayed hypersensitivity reaction to PPD; assay: Delayed hypersensitivity reaction to PPD in guinea pigs, topical under occlusion (Example C); type: in vivo; conditions: for % Inhibition 24h after challenge: Diameter of erythema / % Inhibition 24h after challenge: Erythema score / % Inhibition 24h after challenge: Increase in skin thickness: topical under occlusion, n=6
Method: Male guinea pigs weighing 250-300 g were sensitised by a subcutaneous injection of Freunds Complete Adjuvant (Difco) in saline. Fourteen days following sensitisation animals were challenged intradermally into a shaved flank with 50 μg of purified protein derivative PPD (in 0.1 ml of saline). Changes in skin thickness were determined immediately before and 24 h and 48 h after antigen challenge. In addition, the diameter of reaction and a semiquantitative estimate of the degree of erythema were determined at 24 h and 48 h.
The compound of Example 1 was applied topically under an occlusive dressing. This consisted of adding a solution of the compound in dimethylacetamide (0.3 ml) to a filter paper square (4×4 cm) backed by surgical tape placed on the challenge site and held in place by adhesive bandage encircling the torso of the animal. The dressing was applied 10 min after challenge and removed 24 h later. Control animals received dimethylacetamide alone to the challenge site.
The effect of the compound of Example 1 applied under occlusion, with antigen challenge, on the delayed hypersensitivity reaction to PPD in guinea pigs (n=6)

rejection of skin grafts = assay: Rejection of tailskin grafts in mice, graft survival (Example B); type: in vivo, mice (CBA strain donors, Lac/a strain recipients)
Method: The tailskin grafting method of Bailey and Usania (Transplantation Bulletin 7, 424-5, 1960) was used.
Sections of tailskin from donor CBA strain mice (agonti) were grafted onto the tails of 16 Lac/a strain mice (albino). Test compound was given from 2 days prior to grafting until graft loss at a dose of 50 mg/kg/day in 1% "Tween 80"/saline vehicle by the intraperitoneal route. Graft condition was assessed daily and mean graft survival time (days) of vehicle, and drug tested groups, was compared.

[2] = system: delayed contact sensitivity to oxazolone (increase of ear thickness); assay: Delayed contact sensitivity to oxazolone in mice (Example A); type: in vivo; conditions: for inhibition of increased ear thickness: 24 hours after challenge
Method: This response is a measure of a cell-mediated immune response which is dependent on the activity of thymus-derived lymphocytes. Mice are sensitised with 100 μl of oxazolone and are subsequently challenged with 15 μl of 3% oxazolone on their right ears on day 7. The resulting cell-mediated response is measured 24 hours after challenge by assessing the increase of ear thickness using a dial gauge. The unchallenged left ears act as controls.

In the case of `COc1ccc2c(c1)sc1nc(N)nc(=Nc3ccccc3)n12` [Example 1, 2-Amino-8-methoxy-4-phenylimino-4H-1,3,5-triazino[2,1-b]benzothiazole], the “% Inhibition 24h after challenge: Diameter of erythema” value (from here on “% Inhibition 24h … of erythema”) ([1]; 1% in dimethylacetamide) was 5%, the “% Inhibition 24h after challenge: Erythema score” value (shortened to “% Inhibition 24h … Erythema score”) ([1]; 1% in dimethylacetamide) was 20% and the “% Inhibition 24h after challenge: Increase in skin thickness” value ([1]; 1% in dimethylacetamide) was 20%. For the same compound, the “inhibition of the increase in skin thickness” value ([1]; 1 to 3% in dimethylacetamide, 24 hours post challenge, result in words) was “dose dependent inhibition of the increase in skin thickness”, the “reaction diameters and erythema scores” value ([1]; 1 to 3% in dimethylacetamide, compared with dimethylacetamide controls, result in words) was “significantly reduced the reaction diameters and erythema scores” and the “% Inhibition 24h … of erythema” value ([1]; 2% in dimethylacetamide) was 16%. The “% Inhibition 24h … Erythema score” value ([1]; 2% in dimethylacetamide) was 32%, the “% Inhibition 24h after challenge: Increase in skin thickness” value ([1]; 2% in dimethylacetamide) was 35% and the “% Inhibition 24h … of erythema” value ([1]; 3% in dimethylacetamide) was 34%. The “% Inhibition 24h … Erythema score” value ([1]; 3% in dimethylacetamide) was 63%, the “% Inhibition 24h after challenge: Increase in skin thickness” value ([1]; 3% in dimethylacetamide) was 50% and the “suppression of delayed hypersensitivity reaction” value ([1]; guinea pigs, dosed topically, result in words) was “suppress a delayed hypersensitivity reaction in guinea pigs”. The “prolongation of skin graft survival” value (rejection of skin grafts; 50 mg/kg/day intraperitoneal from 2 days prior to grafting until graft loss, versus vehicle, significant) was 2.5 days, the “suppression of the rejection of skin grafts” value (rejection of skin grafts; mice, result in words) was “suppress the rejection of skin grafts in mice” and the “inhibition of delayed contact sensitivity to oxazolone” value ([2]; mice, result in words) was “inhibit a delayed contact sensitivity to oxazolone in mice”. The “inhibition of increased ear thickness” value ([2]; single dose 50 mg/kg intraperitoneal on day 1 relative to sensitisation) was 44%, the “inhibition of increased ear thickness” value ([2]; single dose 50 mg/kg intraperitoneal on day 2 relative to sensitisation) was 44% and the “inhibition of increased ear thickness” value ([2]; single dose 50 mg/kg intraperitoneal on day 3 relative to sensitisation) was 49%. For the same compound, the “inhibition of increased ear thickness” value ([2]; single dose 50 mg/kg intraperitoneal on day 7 relative to sensitisation) was 61% and the “inhibition of increased ear thickness” value ([2]; single dose 50 mg/kg intraperitoneal on one of days -1, 0, 1, 2, 3 or 7 relative to sensitisation, result in words) was “inhibition of increased ear thickness”.
